What was measured:
[1] = target: BRD4 (His-Brd4(44-477)) (Homo sapiens (Human), UniProt O60885); assay: TR-FRET in-vitro binding assay for BRD4; settings: single determination or n ≧ 2 independent determinations, read-out: Biochemical IC50 BRD4
Method: (§1) TR-FRET In-Vitro Binding Assays for BRD2, BRD3, and BRD4:
(§2) All assays were performed in 384 well microtiter plates. Each assay plate contained 8-point serial dilutions for 40 test compounds, plus 16 high- and 16 low controls. Liquid handling and incubation steps were done on an Innovadyne Nanodrop Express equipped with a robotic arm (Thermo CatX, Perkin Elmer/Caliper Twister II) and an incubator (Liconic STX40, Thermo Cytomat 2C450). The assay plates were prepared by addition of 50 nl per well of compound solution in 90% DMSO HummingBird nanodispenser (Zinsser Analytic). […] Reactions were incubated at 30° C. for 35 minutes. […] After 35 minutes incubation at 30° C., plates were measured in a Perkin Elmer EnVision multilabel reader.
(§3) Preparation of Compound Dilutions
(§4) Test compounds were dissolved in DMSO (10 mM) and transferred into 1.4 mL flat bottom or V-shaped Matrix tubes carrying a unique 2D matrix. The stock solutions were stored at […] if not used immediately. For the test procedure the vials were defrosted and identified by a scanner whereby a working sheet was generated that guided the subsequent working steps.
(§5) Compound dilutions were made in 96 well plates. This format enabled the assay of maximally 40 individual test compounds at 8 concentrations (single points) including 4 reference compounds, if desired (known BET inhibitors from the prior art, for this and other assays of the type disclosed herein). The dilution protocol included the production of “pre-dilution plates”, “master plates” and “assay plates”.
(§6) Pre-Dilution Plates: 96 polypropylene well plates were used as pre-dilution plates. A total of 4 pre-dilution plates were prepared including 10 test compounds each on the plate positions A1-A10, one standard compound at A11 and one DMSO control at A12. All dilution steps were done on a HamiltonSTAR robot.
(§7) These plates were used directly for the assay which was performed in a total volume of 13.55 μL.

[2] = target: BRD3 (His-Brd3(20-477)) (Homo sapiens (Human), UniProt Q15059); assay: TR-FRET in-vitro binding assay for BRD3; settings: single determination or n ≧ 2 independent determinations, read-out: Biochemical IC50 BRD3
Method: as §1, §2, §3, §4, §5, §6, §7

[3] = target: CREBBP bromodomain (His-CREBBP(1081-1197)) (Homo sapiens (Human), UniProt Q92793); assay: AlphaScreen in-vitro binding assay for CREBBP; settings: single determination or n ≧ 2 independent determinations, read-out: Biochemical IC50 CREBBP
Method: AlphaScreen In-Vitro Binding Assay for CREBBP
In order to assess bromodomain selectivity, we set up a binding assay using the bromodomain encoded by the CREBBP gene. […] Reactions were incubated at 30° C. for 35 minutes. Subsequently 4.5 μl per well detection mix (50 mM HEPES, pH 7.5, 0.005% Tween20, 0.02% BSA, 150 mM NaCl, 45 μg/ml Ni-chelate acceptor beads, 45 μg/mIstreptavidin-donor beads) (Perkin Elmer)) were added. After 60 minutes incubation at room temperature, plates were measured in a Perkin Elmer EnVision multilabel reader. IC50 values were determined from percent inhibition values at different compound concentrations by non-linear regression analysis.
as §3, §4, §5, §6, §7

[4] = system: THP-1 cells; assay: Cell growth inhibition assay (CellTiter-Glo), THP-1; settings: for GI50: Homo sapiens, THP-1, read-out: THP-1 GI50; for THP-1 TGI: THP-1 cells, total growth inhibition, CellTiter-Glo;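 as to all read-outs here: viability read as cellular ATP luminescence after 4 days, 3-fold dilution series from 10 µM, DMSO vehicle-treated cells taken as 100%, cell-free medium wells as −100%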
[5] = system: K-562 cells; assay: Cell growth inhibition assay (CellTiter-Glo), K-562; settings: for GI50: Homo sapiens, K562, read-out: K-562 GI50; for K-562 TGI: K-562 cells, total growth inhibition, CellTiter-Glo;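 as to all read-outs here: cellular ATP measured by luminescence after 4 days of exposure, 3-fold dilution series from 10 µM, DMSO vehicle-treated cells define 100%, cell-free medium wells −100%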
[6] = system: MV-4-11 cells; assay: Cell growth inhibition assay (CellTiter-Glo), MV-4-11; settings: for GI50: Homo sapiens, MV4-11, read-out: MV-4-11 GI50; for MV-4-11 TGI: MV-4-11 cells, total growth inhibition, CellTiter-Glo;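 as to all read-outs here: cellular ATP luminescence after 4 days, 3-fold dilution series from 10 µM top dose, vehicle (0.1% DMSO) set to 100%, cell-free medium set to −100%, day 0 corrected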

Sequence of BRD3 (His-Brd3(20-477)) (Q15059 20-477): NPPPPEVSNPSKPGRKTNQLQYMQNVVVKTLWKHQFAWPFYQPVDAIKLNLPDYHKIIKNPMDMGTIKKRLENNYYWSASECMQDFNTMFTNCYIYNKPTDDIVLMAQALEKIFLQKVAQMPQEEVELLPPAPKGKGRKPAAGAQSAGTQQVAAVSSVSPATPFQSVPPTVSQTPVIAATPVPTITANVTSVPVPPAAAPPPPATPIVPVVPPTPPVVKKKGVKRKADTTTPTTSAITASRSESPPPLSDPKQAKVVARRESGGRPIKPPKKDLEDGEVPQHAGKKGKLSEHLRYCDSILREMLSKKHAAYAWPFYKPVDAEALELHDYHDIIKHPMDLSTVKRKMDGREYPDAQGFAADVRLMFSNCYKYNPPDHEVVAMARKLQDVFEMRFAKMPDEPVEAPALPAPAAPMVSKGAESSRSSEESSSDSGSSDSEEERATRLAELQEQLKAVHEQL
Sequence of CREBBP bromodomain (His-CREBBP(1081-1197)) (Q92793 1081-1197): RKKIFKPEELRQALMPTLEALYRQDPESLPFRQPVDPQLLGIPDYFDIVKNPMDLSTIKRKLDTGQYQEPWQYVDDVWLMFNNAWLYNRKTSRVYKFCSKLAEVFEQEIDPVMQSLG

| Structure (SMILES) | IC50 [1] | IC50 [2] | IC50 [3] | GI50 [4] | THP-1 TGI [4] | GI50 [5] | K-562 TGI [5] | GI50 [6] | MV-4-11 TGI [6] |
| --- | --- | --- | --- | --- | --- | --- | --- | --- | --- |
| Cc1cc(N2C(=O)c3nc(C)n(C4COC4)c3C2c2ccc(Cl)cc2)cc2c1nnn2C (stereo not drawn) [Example 94, 6-(4-chlorophenyl)-5-(1,4-dimethyl-1H-benzo[d][1,2,3]triazol-6-yl)-2-methyl-1-(oxetan-3-yl)-5,6-dihydropyrrolo[3,4-d]imidazol-4(1H)-one] | 71.5 nM | 46 nM | 8050 nM | 47.4 nM | 94.35 nM | 270 nM | >10000 nM | 40.6 nM | 68.7 nM |
| Cc1cc(N2C(=O)c3nc(C4CC4)n(C4COC4)c3C2c2ccc(Cl)cc2)cc2c1nnn2C (stereo not drawn) [Example 95, 6(4-chlorophenyl)-2-cyclopropyl-5-(1,4-dimethyl-1H-benzo[d][1,2,3]triazol-6-yl)-1-(oxetan-3-yl)-5,6-dihydropyrrolo[3,4-d]imidazol-4(1H)-one] | 26.5 nM | 29 nM | 1950 nM | 17 nM | 52.4 nM | 85.7 nM | >10000 nM | 28 nM | 42 nM |
| Cc1cc(N2C(=O)c3nc(C4=CCOCC4)n(C(C)C)c3[C@H]2c2ccc(Cl)cc2)nc2c1nnn2C [Example 164, (R)-6-(4-chlorophenyl)-2-(3,6-dihydro-2H-pyran-4-yl)-5-(3,7-dimethyl-3H-[1,2,3]triazolo[4,5-b]pyridin-5-yl)-1-isopropyl-5,6-dihydropyrrolo[3,4-d]imidazol-4(1H)-one] | < 11 nM | < 11 nM | 11200 nM | 1.12 nM | 2.43 nM | 13.2 nM | >10000 nM | 0.887 nM | 1.83 nM |
| COc1ncccc1-c1nc2c([nH]1)[C@@H](c1ccc(Cl)cc1)N(c1cc(C)c3nnn(C)c3n1)C2=O [Example 166, (R)-6-(4-chlorophenyl)-5-(3,7-dimethyl-3H-[1,2,3]triazolo[4,5-b]pyridin-5-yl)-2-(2-methoxypyridin-3-yl)-5,6-dihydropyrrolo[3,4-d]imidazol-4(1H)-one] | 13 nM | 12 nM | 33100 nM | 7.54 nM | 11.28 nM | 84.6 nM | >10000 nM | 5.42 nM | 8.15 nM |
| Cc1cc(N2C(=O)c3nc(C4=CCOCC4)[nH]c3[C@H]2c2ccc(Cl)cc2)nc2c1nnn2C [Example 165, (R)-6-(4-chlorophenyl)-2-(3,6-dihydro-2H-pyran-4-yl)-5-(3,7-dimethyl-3H-[1,2,3]triazolo[4,5-b]pyridin-5-yl)-5,6-dihydropyrrolo[3,4-d]imidazol-4(1H)-one] | 19 nM | 18 nM | 14800 nM | 4 nM | 15.67 nM | 47.9 nM | >10000 nM | 4.12 nM | 12.74 nM |
| Cc1cc(N2C(=O)c3nc(C4CCOCC4)n(C4COC4)c3C2c2ccc(Cl)cc2)cc2c1nnn2C (stereo not drawn) [Example 105, 6-(4-chlorophenyl)-5-(1,4-dimethyl-1H-benzo[d][1,2,3]triazol-6-yl)-1-(oxetan-3-yl)-2-(tetrahydro-2H-pyran-4-yl)-5,6-dihydropyrrolo[3,4-d]imidazol-4(1H)-one] | 13 nM | 17 nM | 2000 nM | 12.3 nM | 27.85 nM | 90.2 nM | >10000 nM | 10.8 nM | 21.95 nM |
| Cc1cc(N2C(=O)c3nc(C4=CCOCC4)n(C4COC4)c3C2c2ccc(Cl)cc2)cc2c1nnn2C (stereo not drawn) [Example 93, 6-(4-chlorophenyl)-2-(3,6-dihydro-2H-pyran-4-yl)-5-(1,4-dimethyl-1H-benzo[d][1,2,3]triazol-6-yl)-1-(oxetan-3-yl)-5,6-dihydropyrrolo[3,4-d]imidazol-4(1H)-one] | 21.5 nM | 34 nM | 2700 nM | 21.2 nM | 69.35 nM | 104 nM | >10000 nM | 15.9 nM | 32 nM |
| Cc1cc(N2C(=O)c3nc(C4=CCOCC4)[nH]c3[C@H]2c2ccc(Cl)cc2)cn(C)c1=O [Example 152, (R)-6-(4-chlorophenyl)-2-(3,6-dihydro-2H-pyran-4-yl)-5-(1,5-dimethyl-6-oxo-1,6-dihydropyridin-3-yl)-5,6-dihydropyrrolo[3,4-d]imidazol-4(1H)-one] | 25 nM | 22.5 nM | 525 nM | 62.7 nM | 135.5 nM | 244 nM | >10000 nM | 34.4 nM | 57.3 nM |
| COc1ncccc1-c1nc2c([nH]1)C(c1ccc(Cl)cc1)N(c1cc(C)c3nnn(C)c3n1)C2=O (stereo not drawn) [Example 163, 6-(4-chlorophenyl)-5-(3,7-dimethyl-3H-[1,2,3]triazolo[4,5-b]pyridin-5-yl)-2-(2-methoxypyridin-3-yl)-5,6-dihydropyrrolo[3,4-d]imidazol-4(1H)-one] | 13 nM | 16 nM | > 37000 nM | 15.8 nM | 25.75 nM | 53.3 nM | >10000 nM | 15.5 nM | 29.05 nM |
| Cc1cc(N2C(=O)c3nc(C4=CCN(C)CC4)n(C4COC4)c3C2c2ccc(Cl)cc2)cc2c1nnn2C (stereo not drawn) [Example 96, 6-(4-chlorophenyl)-5-(1,4-dimethyl-1H-benzo[d][1,2,3]triazol-6-yl)-2-(1-methyl-1,2,3,6-tetrahydropyridin-4-yl)-1-(oxetan-3-yl)-5,6-dihydropyrrolo[3,4-d]imidazol-4(1H)-one] | 39 nM | 33.5 nM | 3950 nM | 202 nM | 273.6 nM | 351 nM | >10000 nM | 79.3 nM | 120.6 nM |
| Cc1cc(N2C(=O)c3nc(C4=CCOCC4)[nH]c3C2c2ccc(Cl)cc2)cn2c(C)nnc12 (stereo not drawn) [Example 116, 6-(4-chlorophenyl)-2-(3,6-dihydro-2H-pyran-4-yl)-5-(3,8-dimethyl-[1,2,4]triazolo[4,3-a]pyridin-6-yl)-5,6-dihydropyrrolo[3,4-d]imidazol-4(1H)-one] | 41 nM | 58 nM | 2250 nM | 91.1 nM | 166 nM | 330 nM | >10000 nM | 71.5 nM | 117.5 nM |
| Cc1cc(N2C(=O)c3nc(C4=CCOCC4)[nH]c3C2c2ccc(Cl)cc2)nc2c1nnn2C (stereo not drawn) [Example 162, 6-(4-chlorophenyl)-2-(3,6-dihydro-2H-pyran-4-yl)-5-(3,7-dimethyl-3H-[1,2,3]triazolo[4,5-b]pyridin-5-yl)-5,6-dihydropyrrolo[3,4-d]imidazol-4(1H)-one] | 11.5 nM | 13 nM | > 37000 nM | 5.03 nM | 10.54 nM | 41 nM | >7000 nM | 4.37 nM | 11.12 nM |

Source: patent US9890166B2, “Imidazopyrrolidine derivatives and their use in the treatment of disease” (NOVARTIS AG, priority 2013, dated 2018)
